Converted amounts (≈) assume the structure as drawn. Read-outs that look alike come from different tables or passages of the source.
Legend:
[1] = test system: Escherichia coli (HO141 strain); assay: Growth-inhibiting activity against Escherichia coli; assay type: cell-based; conditions: 6 hours, absorbance at 600 nm, read-out: E. coli IC50
Experimental: Escherichia coli (HO141 strain) was precultured in culture medium of 0.5% Polypeptone, 0.5% Meat Extract, 0.3% NaCl, and 0.001% Sodium Dodecyl Sulfate (SDS) at 37° C. Absorbance at 600 nm was measured, and Escherichia coli solution was prepared such that the absorbance is 0.005 and seeded 100 μl each in a 96-well plate. Each of the agents in Table 5 was added at 0.5% (v/v) and maintained at 37° C. Six hours after addition of the agent, absorbance at 600 nm was measured using a microplate reader (manufactured by PerkinElmer) and a proliferation rate was determined from the measurement value.

[2] = test system: Budding yeast (MLC30M strain); assay: Growth-inhibiting activity against yeast; assay type: cell-based; conditions: Saccharomyces cerevisiae, read-out: Yeast IC50
Experimental: Budding yeast (MLC30M strain) was precultured in a culture medium of 2% Polypeptone, 1% yeast extract, 2% glucose, 0.02% adenine, and 0.001% sodium dodecyl sulfate (SDS) at 30° C. Absorbance at 600 nm was measured, and yeast solution was prepared such that the absorbance is 0.05 and seeded 100 μl each in a 96-well plate. Each of the agents in Table 5 was added at 0.5% (v/v) and maintained at 30° C. Eighteen hours after addition of the agent, absorbance at 600 nm was measured using a microplate reader (manufactured by PerkinElmer) and a proliferation rate was determined from the measurement value.

[3] = test system: tsFT210 cells (mouse breast cancer cells CDC2 temperature sensitive strain); assay: Growth-inhibiting activity against animal cells (WST-8), tsFT210; assay type: cell-based
Experimental: (§1) HL-60 cells (human acute promyelocytic leukemia cell line) and K562 cells (human chronic myeloid leukemia cell line) were maintained in a culture medium in which RPMI1640 medium (manufactured by Invitrogen) was added with 10% fetal bovine serum (manufactured by Nichirei), 0.5% penicillin/streptomycin solution (manufactured by Invitrogen) at 37° C. under a humidified culture of 5% CO2. tsFT210 cells (mouse breast cancer cells CDC2 temperature sensitive strain) were maintained in a culture medium in which RPMI1640 medium (manufactured by Invitrogen) was added with 5% calf serum (manufactured by Hyclone) and 0.5% penicillin/streptomycin solution at 32° C. under a humidified culture of 5% CO2.
(§2) HL-60 cells and K562 cells were seeded in a 96-well plate (manufactured by IWAKI) so as to be 1.5×10^4 cells/well/100 μl. tsFT210 cells were seeded in a 96-well plate so as to be 1.6×10^4 cell/well/100 μl. Each of the agents in Table 5 was added at 0.5% (v/v). HL-60 cells and K562 cells were maintained at 37° C. under a humidified culture of 5% CO2 and tsFT210 cells were maintain at 32° C. under a humidified culture of 5% CO2. Forty eight hours after addition of the agent, 10 μl of a reagent SF solution for counting live cells (WST-8 reagent, manufactured by Nakarai tesque) was added to each well. HL-60 cells and K562 cells were maintained at 37° C. under a humidified culture of 5% CO2 for 30 minutes and tsFT210 cells were maintain at 32° C. under a humidified culture of 5% CO2 for one hour. After the reaction, absorbance at 450 nm was measured using a microplate reader (manufactured by PerkinElmer) and a cell proliferation rate was determined from the measurement value.

[4] = test system: HL-60 cells (human acute promyelocytic leukemia cell line); assay: Growth-inhibiting activity against animal cells (WST-8), HL-60; assay type: cell-based; conditions: for IC50: Homo sapiens, read-out: HL60 IC50
Experimental: as §1, §2

[5] = test system: K562 cells (human chronic myeloid leukemia cell line); assay: Growth-inhibiting activity against animal cells (WST-8), K562; assay type: cell-based
Experimental: as §1, §2

[6] = target: T1, Isoleucyl tRNA synthetase (Homo sapiens, UniProt P41252); assay: Inhibitory activity against isoleucyl tRNA synthetase; assay type: biochemical; conditions: HT1080 cell lysate, [3H]isoleucine, 25° C., 20 minutes; read-out: IRS IC50 (converted)
T1 construct: 10 μg protein (HT1080 cell lysate); endogenous in cells; host or cells: HT1080 cell lysate
T1 sequence (P41252 1-1262): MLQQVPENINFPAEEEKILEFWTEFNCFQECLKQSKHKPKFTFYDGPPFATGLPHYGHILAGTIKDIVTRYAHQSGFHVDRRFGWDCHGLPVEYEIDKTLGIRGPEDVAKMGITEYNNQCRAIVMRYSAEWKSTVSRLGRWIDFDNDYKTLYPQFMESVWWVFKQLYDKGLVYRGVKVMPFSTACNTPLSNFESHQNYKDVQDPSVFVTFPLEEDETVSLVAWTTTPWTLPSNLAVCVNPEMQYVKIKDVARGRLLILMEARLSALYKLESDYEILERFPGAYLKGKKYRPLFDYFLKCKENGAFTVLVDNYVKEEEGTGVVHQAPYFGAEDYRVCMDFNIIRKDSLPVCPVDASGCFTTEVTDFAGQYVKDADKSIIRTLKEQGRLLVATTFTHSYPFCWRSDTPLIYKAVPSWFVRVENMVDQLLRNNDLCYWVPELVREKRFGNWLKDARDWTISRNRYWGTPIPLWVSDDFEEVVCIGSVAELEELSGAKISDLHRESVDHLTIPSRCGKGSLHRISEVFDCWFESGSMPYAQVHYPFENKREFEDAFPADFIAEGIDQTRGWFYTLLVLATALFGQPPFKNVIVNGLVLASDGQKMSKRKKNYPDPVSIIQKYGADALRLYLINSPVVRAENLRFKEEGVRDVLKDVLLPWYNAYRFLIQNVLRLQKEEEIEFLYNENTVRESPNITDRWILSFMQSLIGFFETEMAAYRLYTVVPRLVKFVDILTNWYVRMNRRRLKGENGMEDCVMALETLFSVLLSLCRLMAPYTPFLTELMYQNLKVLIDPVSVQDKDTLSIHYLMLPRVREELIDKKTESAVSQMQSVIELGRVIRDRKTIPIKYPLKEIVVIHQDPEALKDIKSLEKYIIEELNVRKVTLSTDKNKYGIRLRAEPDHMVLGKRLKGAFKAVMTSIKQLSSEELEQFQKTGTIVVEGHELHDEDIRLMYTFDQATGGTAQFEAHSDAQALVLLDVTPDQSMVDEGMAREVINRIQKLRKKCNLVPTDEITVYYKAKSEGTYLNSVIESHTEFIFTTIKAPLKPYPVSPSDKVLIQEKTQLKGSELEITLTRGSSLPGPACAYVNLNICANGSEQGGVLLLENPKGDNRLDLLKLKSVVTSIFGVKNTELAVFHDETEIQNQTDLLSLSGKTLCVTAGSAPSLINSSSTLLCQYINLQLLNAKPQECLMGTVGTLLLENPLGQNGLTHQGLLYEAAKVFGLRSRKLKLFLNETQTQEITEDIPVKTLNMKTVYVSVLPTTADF
Experimental: To a solution for enzymatic reaction [20 mM imidazole, pH 7.5, 75 mM MgCl2, 0.5 mM DTT, 1 U/ml tRNA (E. coli origin, manufactured by Sigma), 3 mM ATP, 1 μM isoleucine, 10 μCi/ml [^3H]isoleucine (manufactured by GE Healthcare), 10 μg protein (HT1080 cell lysate)], each of the agents in Table 5 was added at 1% (v/v) so as to attain a total amount of 100 μl and a reaction was carried out at 25° C. for 20 minutes. One mg/ml BSA solution (400 μl) and 10% TCA solution (500 μl) were then added thereto to terminate the reaction and left to stand at 4° C. overnight. A precipitate obtained by a centrifugal operation was transferred onto GF-C filter (manufactured by Whatman), washed three times with 5% TCA solution, followed by drying the filter. Two milliliters of aquasol-2 (manufactured by PerkinElmer) and the filter were placed in a vial and vigorously stirred, and then the amount of [^3H]isoleucine was measured by a liquid scintillation counter (manufactured by Beckman) to determine a rate of enzyme activity.

[7] = MLC30M strain, 18 hours, absorbance at 600 nm
[8] = tsFT210 cells, 32° C., 48 hours after addition of the agent, WST-8, read-out: tsFT210 IC50
[9] = HL-60 cells, 48 hours after addition of the agent, WST-8
[10] = K562 cells, 48 hours after addition of the agent, WST-8, read-out: K562 IC50
[11] = tsFT210, 48 h, read-out: tsFT210 IC50
[12] = K562, 48 h, read-out: K562 IC50

Row | SMILES | IC50 [1] [µg/mL] | IC50 [2, 7] [µg/mL] | IC50 [3, 8] [µg/mL] | IC50 [4, 9] [µg/mL] | IC50 [5, 10] [µg/mL] | IC50 ([2]; 18 h) [µg/mL] | IC50 [3, 11] [µg/mL] | IC50 ([4]; HL-60, 48 h) [µg/mL] | IC50 [5, 12] [µg/mL] | IC50 [6] [µM] | cancer cell growth-inhibiting activity (in words) ([4]; summary of Table 5 (HL60, K562, tsFT210), RM-T as compared with RM-A)
1 | CC(/C=C/[C@H](O)[C@@H](C)/C=C/C(=O)O)=C\C[C@H]1O[C@@]2(CC[C@H](C)[C@H](/C=C/C(C)=C/C(=O)O)O2)CC[C@@H]1C [SF-A, spirofungin A, reference compound] | > 50 | 0.3 (≈ 0.597 µM) | > 30 | 1.2 (≈ 2.39 µM) | 3.4 (≈ 6.76 µM) |  |  |  |  |  | 
2 | CCCCC(CCC(O)CCC(C)C(O)C/C=C(C)/C=C/C(O)C(C)/C=C/C(=O)O)C(O)/C=C/C(C)=C/CC(O)CC (stereo not drawn) [RM-A1a] | > 50 | > 50 | > 30 | 20.9 (≈ 35.3 µM) | > 30 |  |  |  |  |  | 
3 | CCCC[C@@]1(OC(=O)CCC(=O)O)CC[C@]2(CC[C@H](C)[C@@H](C/C=C(C)/C=C/[C@H](O)[C@@H](C)/C=C/C(=O)O)O2)O[C@H]1/C=C/C(C)=C/CO [RM-A9a] | > 50 |  |  |  |  | 26.4 (≈ 40.8 µM) | 24.6 (≈ 38 µM) | 21 (≈ 32.5 µM) | 22.3 (≈ 34.5 µM) |  | 
4 | CCCCC1CCC2(CCC(C)C(C/C=C(C)/C=C/C(O)C(C)/C=C/C(=O)O)O2)OC1/C=C/C(C)=C/COC(=O)CC (stereo not drawn) [RM-A8a] | > 50 |  |  |  |  | > 50 | 22.3 (≈ 38 µM) | 18 (≈ 30.7 µM) | 18.5 (≈ 31.5 µM) |  | 
5 | CCCCC1CCC2(CCC(C)C(C/C=C(C)/C=C/C(O)C(C)/C=C/C(=O)O)O2)OC1/C=C/C(C)=C/CC(O)CC (stereo not drawn) [RM-A1c] | > 50 |  |  |  |  | > 50 | 6.4 (≈ 11.2 µM) | 6.3 (≈ 11 µM) | 3.4 (≈ 5.94 µM) | 16.8 | 
6 | CC(/C=C/[C@H](O)[C@@H](C)/C=C/C(=O)O)=C\C[C@H]1O[C@]2(CC[C@H](C)[C@H](/C=C/C(C)=C/C(=O)O)O2)CC[C@@H]1C [SF-B, spirofungin B, reference compound] | > 50 | 4 (≈ 7.96 µM) | > 30 | > 30 | > 30 |  |  |  |  |  | 
7 | CCCCC(CCC(O)CCC(C)C(O)C/C=C(C)/C=C/C(O)C(C)/C=C/C(=O)O)C(O)C/C=C(C)/C=C/C(=O)CC (stereo not drawn) [RM-A2b] | > 50 | > 50 | > 30 | > 30 | > 30 |  |  |  |  |  | 
8 | CCCC[C@H]1CC[C@]2(CC[C@H](C)[C@@H](C/C=C(C)/C=C/[C@H](O)[C@@H](C)/C=C/C(=O)OC)O2)O[C@H]1/C=C/C(C)=C/C(=O)O [RM-T methyl-ester] | > 50 |  |  |  |  | > 50 | 8.2 (≈ 14.7 µM) | 0.9 (≈ 1.61 µM) | 2.5 (≈ 4.47 µM) |  | high
9 | CCCCC1CCC(CCC(C)C(O)C/C=C(C)/C=C/C(O)C(C)/C=C/C(=O)O)OC1/C=C/C(C)=C/CC(O)CC (stereo not drawn) [RM-A1b] | 31.9 (≈ 55.5 µM) | > 50 | 17.4 (≈ 30.3 µM) | 7.4 (≈ 12.9 µM) | 21.1 (≈ 36.7 µM) |  |  |  |  |  | 
10 | CCCCC(CCC(O)CCC(C)C(O)C/C=C(C)/C=C/C(O)C(C)/C=C/C(=O)O)C(O)/C=C/C(C)=C/C(=O)O (stereo not drawn) [RM-A1e] | > 50 | 48.2 (≈ 85.3 µM) | > 30 | > 30 | > 30 |  |  |  |  |  | 
11 | CCCCC1CCC2(CCC(C)C(C/C=C(C)/C=C/C(O)C(C)/C=C/C(=O)O)O2)OC1/C=C/C(C)=C/CO (stereo not drawn) [RM-A6a] | 24.6 (≈ 46.3 µM) |  |  |  |  | 31.5 (≈ 59.4 µM) | 6.8 (≈ 12.8 µM) | 7 (≈ 13.2 µM) | 14.8 (≈ 27.9 µM) |  | 

— patent US8980587B2, “Process for producing reveromycin A or a synthetic intermediate thereof, process for producing compounds containing a spiroketal ring and novel antineoplastics, fungicides and therapeutic agents for bone disorders” (RIKEN, priority 2010, dated 2015)
